Experimental data as given in US20230218765A1, “SMALL MOLECULE DEGRADERS OF SHP2 PROTEIN” (THE REGENTS OF THE UNIVERSITY OF MICHIGAN, priority 2020, published 2023).
Like-named read-outs stand apart in the source and are kept apart here.

Columns and labels:
KYSE520 cell line = assay: Cell growth assay (WST-8) in KYSE520; type: cell-based; details: for IC50: KYSE520, 4 days, read-out: IC50, cell growth inhibition
Experimental: (§1) Cell viability was evaluated with a WST-8 assay (Dojindo) following the manufacturer’s instructions. Briefly, cells were seeded in 96-well cell culture plates at a density of 10,000-20,000 cells/well in 200 µL for MV4;11 cell line or 2,000-3,000 for KYSE-520 cell line of culture medium containing serial dilution of testing compounds. After 4 days of treatment, cell growth was measured by a lactate dehydrogenase-based WST-8 assay (Dojindo Molecular Technologies) using a Tecan Infinite M-1000 multimode microplate reader (Tecan US, Morrisville, NC). The WST-8 reagent was added to each well, and cells were incubated for an additional 1-2 h and read at 450 nm. The readings were normalized to the vehicle-treated cells, and the IC50 was calculated by nonlinear regression analysis using the GraphPad Prism 6 software.
(§2) Briefly, Cells were treated with indicated doses for 4 days and cell viability was determined by a colorimetric WST-8 assay.

MV4;11 cell line = assay: Cell growth assay (WST-8) in MV4;11; type: cell-based; details: for IC50: MV4;11, 4 days, read-out: IC50, cell growth inhibition
Experimental: as §1, §2

SHP2 [1] = molecular target: T1, SHP2 (Homo sapiens, UniProt Q06124); assay: SHP2 allosteric inhibition assay; type: biochemical; details: 0.5 nM SHP2, 0.5 µM bisphosphorylated IRS1 peptide, DiFMUP substrate
T1 sequence (Q06124 1-593): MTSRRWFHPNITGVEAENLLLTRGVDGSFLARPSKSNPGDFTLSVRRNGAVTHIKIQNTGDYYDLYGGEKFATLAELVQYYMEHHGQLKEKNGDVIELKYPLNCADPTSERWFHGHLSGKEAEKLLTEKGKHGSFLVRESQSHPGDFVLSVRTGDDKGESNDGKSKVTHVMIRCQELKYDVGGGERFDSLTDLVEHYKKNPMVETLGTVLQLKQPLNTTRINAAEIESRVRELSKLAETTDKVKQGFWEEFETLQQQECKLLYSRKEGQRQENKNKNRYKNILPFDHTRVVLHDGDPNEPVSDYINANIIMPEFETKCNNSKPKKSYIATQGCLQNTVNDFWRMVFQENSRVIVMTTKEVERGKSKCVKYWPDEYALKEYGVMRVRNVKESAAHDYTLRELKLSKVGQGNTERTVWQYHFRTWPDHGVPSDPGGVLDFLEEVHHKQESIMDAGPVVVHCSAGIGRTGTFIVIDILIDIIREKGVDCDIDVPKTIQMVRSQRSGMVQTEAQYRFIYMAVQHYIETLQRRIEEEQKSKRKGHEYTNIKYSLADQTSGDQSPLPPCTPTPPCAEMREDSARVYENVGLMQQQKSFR
Experimental: Assay buffer conditions: 60 mM HEPES, pH 7.2, 75 mM NaCl, 75 mM KCl, 0.05% P-20, 5 mM DTT,1 mM EDTA. 0.5 nM of SHP2 was incubated with 0.5 µM of bisphosphorylated IRS1 peptide and 100 µM (top concentration 3X dilution) of the inhibitory compounds. After incubation 60 min at RT, 5 µl 200 µM substrate DiFMUP (Invitrogen) was added and incubated another 30 min at RT. […] The fluorescence signal was detected by CLARIOstar (BMG tech), excitation wavelength was 340 nm and emission wavelength was 450 nm. The inhibitor dose-response curves were analyzed by Graphpad Prism 8.

SHP2 [2] = molecular target: T1, SHP2; assay: SHP2 degradation by Western blot in MV4;11 cells
Experimental: (§5) Western blotting and quantification were performed with regular western blot method and band quantification was performed using ImageJ. Treated cells were lysed by RIPA buffer supplemented with protease and phosphatase inhibitors. […] The net protein bands and loading controls are calculated by deducting the background from the inverted band value. The final relative quantification values are the ratio of the net band to net loading control.
(§6) The treated cells were harvested and the level of SHP2 protein was examined by blot analysis. GAPDH was used as a loading control.
(§7) SHP2 protein was examined by Western blotting and the protein level was quantified by densitometry and normalized to the corresponding density of the GAPDH protein. […] Cells were treated with 100 nM of SHP2-D26 for different times. SHP2 protein was examined by Western blotting and the GAPDH protein was used as the loading control.

phosphorylation of ERK [3] = assay: Inhibition of ERK phosphorylation (Western blot) in MV4;11 cells; type: cell-based; details: for concentration for complete inhibition of pERK: MV4;11, 48 h
Experimental: (§3) Western blotting and quantification were performed with regular western blot method and band quantification was performed using ImageJ. Treated cells were lysed by RIPA buffer supplemented with protease and phosphatase inhibitors. The cell lysates were separated by 4-12% SDS-PAGE gels and blotted into PVDF (polyvinylidene difluoride) membranes. The net protein bands and loading controls are calculated by deducting the background from the inverted band value. The final relative quantification values are the ratio of the net band to net loading control.
(§4) GAPDH was used as a loading control. (FIG. 3A and FIG. 3B).

SHP2 [4] = molecular target: T1, SHP2; assay: SHP2 degradation by Western blot in KYSE520 cells
Experimental: as §5, §6, §7

phosphorylation of ERK [5] = assay: Inhibition of ERK phosphorylation (Western blot) in KYSE520 cells; type: cell-based; details: for concentration effective in reducing the level of pERK: KYSE520, 48 h
Experimental: as §3, §4

CC(=O)Nc1cccc(Sc2ncc(N3CCC(C)(N)CC3)nc2N)c1Cl [Compound 5, N-(3-((3-amino-5-(4-amino-4-methylpiperidin-l-yl)pyrazin-2-yl)t′hio)-2-chlorophenyl)acetamide]
IC50 (KYSE520 cell line; Homo sapiens, KYSE-520, 96 h): 39.4 µM
IC50 (MV4;11 cell line; Homo sapiens, 96 h): 6600 nM
IC50 (SHP2 [1]): 98.7 nM

Cc1ncsc1-c1ccc([C@@H](C)NC(=O)[C@H]2C[C@H](O)CN2C(=O)[C@H](NC(=O)CCCCCCCCN2CCN(C(=O)CCC(=O)Nc3cccc(Sc4ncc(N5CCC(C)(N)CC5)nc4N)c3Cl)CC2)C(C)(C)C)cc1 [Compound 26]
% of SHP2 protein degradation in MV4;11 cell line (SHP2 [2]; 0.1 µM): >95%
DC50 (SHP2 [2]; read-out: DC50 (concentration needed to induced targeted protein degradation by 50%), MV4;11, 12 h): 2.6 nM
IC50 (KYSE520 cell line; Homo sapiens, KYSE-520, 96 h): 0.66 µM
times more potent than SHP099 in inhibiting cell growth (KYSE520 cell line; KYSE520): 28 times
times more potent than compound 4 in inhibiting cell growth (KYSE520 cell line; KYSE520): 64 times
times more potent than compound 5 in inhibiting cell growth (KYSE520 cell line; KYSE520): 60 times
times more potent than SHP099 in inhibition of pERK (phosphorylation of ERK [3]; MV4;11): > 30 times
concentration for complete inhibition of pERK (phosphorylation of ERK [3]): 100 nM
IC50 (MV4;11 cell line; Homo sapiens, 96 h): 9.9 nM
times more potent than SHP099 in cell growth inhibition (MV4;11 cell line; MV4;11): 100 times
times more potent than compound 4 in cell growth inhibition (MV4;11 cell line; MV4;11): > 400 times
times more potent than compound 5 in cell growth inhibition (MV4;11 cell line; MV4;11): > 600 times
% of SHP2 protein degradation in KYSE520 cell line (SHP2 [4]; 0.1 µM): >95%
% of SHP2 protein degradation in KYSE520 cell line (SHP2 [4]; 1 µM): >95%
time to reduce the SHP2 protein level (SHP2 [4]; KYSE520, 100 nM): ≤ 4 h
treatment time for essentially complete SHP2 depletion (SHP2 [4]; KYSE520, 100 nM): 8 h
DC50 (SHP2 [4]; read-out: DC50 (concentration needed to induced targeted protein degradation by 50%), KYSE520, 12 h): 6 nM
times more potent than SHP099 in inhibition of pERK (phosphorylation of ERK [5]; KYSE520): > 30 times
concentration effective in reducing the level of pERK (phosphorylation of ERK [5]): 100 nM

CC1(N)CCN(c2cnc(-c3cccc(Cl)c3Cl)c(N)n2)CC1 [SHP099, reference compound]
IC50 (KYSE520 cell line): 18.2 µM
concentration for complete inhibition of pERK (phosphorylation of ERK [3]): > 3,000 nM
IC50 (MV4;11 cell line): 1000 nM
concentration effective in reducing the level of pERK (phosphorylation of ERK [5]): > 3,000 nM
